# Measurements from patent US6426355B1, “Heterocyclic carboxamide-containing thiourea inhibitors of herpes viruses containing phenylenediamine group” (American Home Products, priority 1998, dated 2002).
# What was measured:
# [1] = tested on: HCMV recombinant mutant virus (RV145); assay: HCMV microtiter plate assay (beta-glucuronidase reporter); type: cell-based, Human Cytomegalovirus; conditions: HCMV in human foreskin fibroblasts
# Excerpt: Ninety-six well plate cultures of human foreskin fibroblasts are infected in the presence of inhibitor compound with a HCMV recombinant mutant virus whose genome contains the prokaryotic beta-glucuronidase gene (Jefferson, R. A., S. M. Burgess, and D. Hirsh. 1986. Beta-glucuronidase from Escherichia coli as a gene fusion marker. Proc. Natl. Acad. Sci. USA 83:8447-8451) whose expression is controlled by a viral promoter. An example of such a virus is RV145 (Jones, T. R., V. P. Muzithras, and Y. Gluzman. 1991. Replacement mutagenesis of the human cytomegalovirus genome: US10 and US11 gene products are nonessential. J. Virol. 65:5860-5872). Since it is under the control of a viral promoter, beta-glucuronidase expression is an indirect indicator of growth and replication of HCMV in this assay. At 96 hours post-infection, the infected cell lysates are prepared (using 50 mM sodium phosphate [pH7.0] containing 0.1% Triton X-100 and 0.1% sarkosyl) and assayed for beta-glucuronidase activity using a substrate for the enzyme which when cleaved yields either a product which can be measured colorimetrically in a spectrophotometer or fluorescently in a microfluorimeter. Examples of such substrates are p-nitrophenyl-beta-D-glucuronide and methylumbelliferylglucuronide, respectively. The presence of an antiviral compound is indicated by the reduced expression of the HCMV genome resident beta-glucuronidase gene, compared to the absence of inhibitor. […] Data from this assay generated using varying amounts of inhibitor compound is also used to estimate the IC50 of an inhibitor compound.
# VZV strain Ellen = assay: VZV Antiviral (ELISA) assay; type: cell-based; conditions: VZV strain Ellen in HFF cells
# Protocol: For the generation of stock VZV to be used in the assay, VZV strain Ellen (ATCC #VR-1367) is used to infect human foreskin fibroblast (HFF) cells at low multiplicity (less than 0.1) and incubated overnight at 37° C. in 5% CO2. After the overnight incubation, the mixture of uninfected and VZV-infected HFF infected cells are then harvested and added to each well of 96-well plates (3.5×10^4 cells in 100 μl DMEM supplemented with 2% FBS) which contain test compound or the reference standard drug control (in 100 μl DMEM supplemented with 2% FBS per well). These cells are incubated for three days at 37° C. in 5% CO2, then fixed for ELISA assay. The primary antibody is murine anti-VZV glycoprotein II monoclonal antibody (Applied Biosystems, Inc. #13-145-100) and the secondary antibody is goat anti-mouse IgG linked to β-galactosidase. Thus the extent of viral replication is determined by assessing β-galactosidase activity by quantifying the generation of the 4-methyl umbelliferone fluorescent cleavage product after addition of the methyl umbelliferyl-β-D-galactoside (Sigma #M1633) substrate on a microfluorimeter (365 nm for excitation and 450 nm for emission). Antiviral activity (IC50) of the test compound is determined by comparing the flourescence obtained in absence of compound to that obtained in the presence of compound.
Structure (SMILES),IC50 (ug/ml) HCMV [1] [µg/mL],IC50 (ug/ml) VZV (VZV strain Ellen) [µg/mL]
CN(C)c1cc(NC(=S)Nc2ccc(NC(=O)c3csnn3)cc2)cc(C(F)(F)F)c1 [Example 571],0.013,>10
O=C(Nc1ccc(NC(=S)NCc2cccc(Cl)c2)cc1)c1csnn1 [Example 572],0.0078,>10
O=C(Nc1ccc(NC(=S)NCCc2cccc(F)c2)cc1)c1ccco1 [Example 573],0.05,>10
O=C(Nc1ccc(NC(=S)NCCc2ccccc2)cc1)c1ccco1 [Example 574],0.089,>10
O=C(Nc1ccc(NC(=S)NCCc2ccccc2)cc1)c1csnn1 [Example 575],0.017,2
O=C(Nc1ccc(NC(=S)NCc2cc(F)cc(F)c2)cc1)c1ccco1 [Example 579],0.05,6
O=C(Nc1ccc(NC(=S)NCc2cc(F)cc(F)c2)cc1)c1csnn1 [Example 581],0.01,>10
O=C(Nc1ccc(NC(=S)NCc2cc(Cl)cc(Cl)c2)cc1)c1ccco1 [Example 582],0.01,8
O=C(Nc1ccc(NC(=S)NCc2cc(Cl)cc(Cl)c2)cc1)c1csnn1 [Example 584],0.0026,>10
O=C(Nc1ccc(NC(=S)NCc2cc(F)cc(C(F)(F)F)c2)cc1)c1ccco1 [Example 585],0.015,>10
O=C(Nc1ccc(NC(=S)NCc2cc(F)cc(C(F)(F)F)c2)cc1)c1csnn1 [Example 587],0.005,>10
COc1ccc(CCNC(=S)Nc2ccc(NC(=O)c3ccco3)cc2)cc1OC [Example 611],0.5,>10
O=C(Nc1ccc(NC(=S)NCCCc2ccccc2)cc1)c1ccco1 [Example 612],0.049,1
O=C(Nc1ccc(NC(=S)NCCCc2ccccc2)cc1)c1csnn1 [Example 613],0.011,>10
O=C(Nc1ccc(NC(=S)NCCc2cc(C(F)(F)F)cc(C(F)(F)F)c2)cc1)c1ccco1 [Example 614],0.024,7
O=C(Nc1ccc(NC(=S)Nc2ccc(I)c(C(F)(F)F)c2)cc1)c1csnn1 [Example 615],0.005,>10
CN1CCN(c2ccc(CNC(=S)Nc3ccc(NC(=O)c4csnn4)cc3)cc2C(F)(F)F)CC1 [Example 617],0.013,>10
CN(C)c1cc(CNC(=S)Nc2ccc(NC(=O)c3csnn3)cc2)cc(C(F)(F)F)c1 [Example 618],0.0016,>10
O=C(Nc1ccc(NC(=S)NCc2ccc(F)c(C(F)(F)F)c2)cc1)c1csnn1 [Example 624],0.002,>10
O=C(Nc1ccc(NC(=S)NCc2ccccc2Cl)cc1)c1csnn1 [Example 729],0.02,–
O=C(Nc1ccc(NC(=S)NCc2ccccc2F)cc1)c1csnn1 [Example 730],0.033,–
O=C(Nc1ccc(NC(=S)NCc2cccc(F)c2)cc1)c1csnn1 [Example 732],0.022,–
O=C(Nc1ccc(NC(=S)NCCOc2ccccc2Cl)cc1)c1csnn1 [Example 733],0.018,–
O=C(Nc1ccc(NC(=S)NCCOc2ccccc2F)cc1)c1csnn1 [Example 735],0.022,–
O=C(Nc1ccc(NC(=S)NCCOc2cccc(F)c2)cc1)c1csnn1 [Example 736],0.012,–
O=C(Nc1ccc(NC(=S)Nc2ccc(F)cc2)cc1)c1csnn1 [Example 740],0.1,–

Structure (SMILES),IC50 (ug/ml) HCMV [1] [µg/mL],IC50 (ug/ml) VZV (VZV strain Ellen) [µg/mL]
C[C@H](NC(=S)Nc1ccc(NC(=O)c2csnn2)cc1)c1ccc(Br)cc1 [Example 815],0.0095,0.27
C[C@@H](NC(=S)Nc1ccc(NC(=O)c2csnn2)cc1)c1ccc(Br)cc1 [Example 816],0.0053,>7.5
CC(NC(=S)Nc1ccc(NC(=O)c2csnn2)cc1)c1cc(C(F)(F)F)cc(C(F)(F)F)c1 (centres unmarked) [Example 818],0.0016,>7.5
C[C@H](NC(=S)Nc1ccc(NC(=O)c2csnn2)cc1)c1ccc(Cl)cc1 [Example 820],0.006,>7.5
C[C@@H](NC(=S)Nc1ccc(NC(=O)c2csnn2)cc1)c1ccc(Cl)cc1 [Example 821],0.005,>7.5
CC(NC(=S)Nc1ccc(NC(=O)c2csnn2)cc1)c1ccc(C#N)cc1 (centres unmarked) [Example 822],0.018,>7.5
CC(NC(=S)Nc1ccc(NC(=O)c2cscn2)cc1)c1ccc(Br)cc1 (centres unmarked) [Example 824],0.014,0.17
C[C@H](NC(=S)Nc1ccc(NC(=O)c2csnn2)cc1)c1cc(C(F)(F)F)cc(C(F)(F)F)c1 [Example 825],0.0013,>7.5
CC(NC(=S)Nc1ccc(NC(=O)c2csnn2)cc1)c1ccc(F)c(C(F)(F)F)c1 (centres unmarked) [Example 828],0.002,>7.5
CC(NC(=S)Nc1ccc(NC(=O)c2cscn2)cc1)c1cc(F)cc(C(F)(F)F)c1 (centres unmarked) [Example 831],0.0011,>7.5
CC(NC(=S)Nc1ccc(NC(=O)c2cscn2)cc1)c1ccc(C(F)(F)F)cc1F (centres unmarked) [Example 832],0.001,>7.5
CC(NC(=S)Nc1ccc(NC(=O)c2cscn2)cc1)c1cc(C(F)(F)F)ccc1F (centres unmarked) [Example 833],0.0019,>7.5
Cc1ccc(C(C)NC(=S)Nc2ccc(NC(=O)c3cscn3)cc2)c(C)c1 (centres unmarked) [Example 834],0.002,>7.5
CC(NC(=S)Nc1ccc(NC(=O)c2cscn2)cc1)c1ccc(Cl)cc1Cl (centres unmarked) [Example 836],0.004,>7.5
Cc1cccc(C(C)NC(=S)Nc2ccc(NC(=O)c3cscn3)cc2)c1 (centres unmarked) [Example 837],0.03,3.60
CC(NC(=S)Nc1ccc(NC(=O)c2cscn2)cc1)c1ccc(F)c(C(F)(F)F)c1 (centres unmarked) [Example 838],0.0007,>7.5
CC(NC(=S)Nc1ccc(NC(=O)c2cscn2)cc1)c1ccc(F)cc1Cl (centres unmarked) [Example 839],0.004,>7.5
CC(NC(=S)Nc1ccc(NC(=O)c2cscn2)cc1)c1ccc(F)c(F)c1 (centres unmarked) [Example 840],0.0015,0.14
CC(NC(=S)Nc1ccc(NC(=O)c2cscn2)cc1)c1ccc(Br)cc1F (centres unmarked) [Example 841],0.0011,0.77
CC(NC(=S)Nc1ccc(NC(=O)c2cscn2)cc1)c1cccc(F)c1 (centres unmarked) [Example 842],0.02,1.55
CC(NC(=S)Nc1ccc(NC(=O)c2cscn2)cc1)c1ccccc1Br (centres unmarked) [Example 843],0.0031,>7.5
CC(NC(=S)Nc1ccc(NC(=O)c2cscn2)cc1)c1cccc(Br)c1 (centres unmarked) [Example 844],0.0008,1.03
CC(NC(=S)Nc1ccc(NC(=O)c2cscn2)cc1)c1ccc(F)cc1Br (centres unmarked) [Example 854],0.02,–
CC(NC(=S)Nc1ccc(NC(=O)c2cscn2)cc1)c1ccc(Br)c(Br)c1 (centres unmarked) [Example 855],0.02,–
CC(NC(=S)Nc1ccc(NC(=O)c2cscn2)cc1)c1ccc(F)c(Cl)c1 (centres unmarked) [Example 856],0.02,–
